The assay addresses Tyrosine-protein phosphatase non-receptor type 22 (Homo sapiens) (UniProt Q9Y2R2). Kind of assay: PTPN22 enzyme inhibition – biochemical, DiFMUP fluorescence, retest and dose response, confirmation (AID 1253). The following applies: recombinant LYP; for inhibition: at 10 µM, stronger effect = higher value.

Activity calls are given as the source filed them.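 Rule for the calls: active = IC50 under 10 µM in the follow-up dose response; inactive = IC50 10 µM or more, or under 40% single-dose inhibition.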 Bounds are passed on as bounds.

Consider 35 compounds from PubChem BioAssay AID1253 (Columbia University Molecular Screening Center, 2008).

Tyrosine-protein phosphatase non-receptor type 22 (Homo sapiens), sequence (Q9Y2R2 whole entry, looked up): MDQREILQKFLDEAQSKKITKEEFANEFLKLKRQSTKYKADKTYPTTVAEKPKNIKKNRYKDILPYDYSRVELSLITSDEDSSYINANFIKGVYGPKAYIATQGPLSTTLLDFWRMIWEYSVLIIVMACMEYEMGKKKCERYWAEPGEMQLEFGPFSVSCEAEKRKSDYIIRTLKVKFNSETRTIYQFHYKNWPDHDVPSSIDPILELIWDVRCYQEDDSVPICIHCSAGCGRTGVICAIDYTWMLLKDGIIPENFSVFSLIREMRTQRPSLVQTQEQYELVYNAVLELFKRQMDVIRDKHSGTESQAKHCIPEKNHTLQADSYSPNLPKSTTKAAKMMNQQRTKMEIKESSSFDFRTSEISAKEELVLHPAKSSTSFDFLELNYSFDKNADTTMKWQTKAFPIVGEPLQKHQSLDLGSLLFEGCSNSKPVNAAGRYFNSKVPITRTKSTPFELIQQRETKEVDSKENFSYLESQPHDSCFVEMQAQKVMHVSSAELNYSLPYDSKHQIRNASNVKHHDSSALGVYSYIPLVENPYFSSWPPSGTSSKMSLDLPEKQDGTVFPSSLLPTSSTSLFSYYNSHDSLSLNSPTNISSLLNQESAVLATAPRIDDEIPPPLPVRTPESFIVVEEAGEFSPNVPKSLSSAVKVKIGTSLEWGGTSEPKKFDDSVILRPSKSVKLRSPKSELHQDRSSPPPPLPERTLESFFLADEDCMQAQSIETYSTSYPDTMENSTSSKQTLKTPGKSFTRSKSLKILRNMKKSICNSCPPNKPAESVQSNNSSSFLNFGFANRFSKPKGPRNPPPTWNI

For the compound `O=C1NC(=O)C(=Cc2cn(CCOc3ccc4c(c3)OCO4)c3ccccc23)C(=O)N1`, the inhibition result was “inactive”. The same measure, in the same setting: the entry for `CC(=O)Nc1cccc(NC(=O)CCn2cnc3cc(C)c(C)cc32)c1` is “inactive”; for `CC(OC(=O)c1ccco1)C(=O)NC1CCCCC1` (stereo not given) it is “inactive”; for `Cc1cc([N+](=O)[O-])nn1CC(=O)NNC(=S)Nc1ccc([N+](=O)[O-])cc1` it is “inactive”. Same read-out and setting: to `C=CCNC(=S)NNC(=O)c1cccn(Cc2cccc(Cl)c2)c1=O` belongs “inactive”; to `COc1ccc(S(=O)(=O)N2CC3CCCN3c3cc(C(F)(F)F)ccc32)cc1` (stereo not given), “inactive”. On the same count and under the same terms, to `CC(=O)Nc1nonc1NC(=O)c1ccc(C(C)(C)C)cc1` belongs “inactive”; to `CCOC(=O)c1ccc(NC(=O)CSc2nc(NC(=O)c3ccccc3)c3c(C)c(C)oc3n2)cc1`, “inactive”. Consider `C=CCNC(=S)NNC(=O)c1cccn(Cc2ccc(Cl)c(Cl)c2)c1=O`, for which the inhibition entry is “inactive”. Same read-out and setting: the entry for `Cc1c(CCOC(=O)C2C3CC4CC(C3)CC2C4)sc[n+]1CC(=O)c1ccc(Br)cc1` (stereo not given) is “inactive”; for `O=C(NCc1ccco1)c1ccc2nc3sc4c(c3c(=O)n2c1)CCCC4` it is “inactive”; for `CC1CCN(S(=O)(=O)c2ccc(NN=C(C#N)C#N)cc2)CC1` it is “inactive”.

`CN(C)c1ccc(/C=N/N=C2/NC(=O)/C(=C/c3ccc([N+](=O)[O-])cc3)S2)cc1`: the inhibition result was “inactive”. Take `CC(C(=O)O)N1C(=O)/C(=C/C=C/c2ccco2)SC1=S` (stereo not given): the concentration for half-maximal inhibition (IC50) is 3.7 µM. With `COc1ccc(CN2CCN(C(=O)c3ccco3)CC2)cc1`, the inhibition result is “inactive”. Still for that read-out and setting: the entry for `CC(C)CNc1nnnc2c1sc1nc(N3CCOCC3)c3c(c12)CC(C)(C)SC3` is “inactive”; for `NC(=O)C1CCN(C(c2ccccc2Cl)c2nnnn2CC2CCCO2)CC1` (stereo not given) it is “inactive”. Turning to `Cn1c(=O)cc(SCC(=O)NCCN2CCN(c3ccccc3F)CC2)c2cc(Cl)ccc21`, the inhibition entry was “inactive”. For `COc1ccc2cc(CN(Cc3ccco3)C(c3nnnn3C3CCCCC3)C(C)C)c(=O)[nH]c2c1` (stereo not given), the inhibition result was “inactive”. Same read-out and setting: to `Cc1nn(-c2ccccc2)c(Cl)c1/C=N/Nc1ccc(S(=O)(=O)Nc2ccccc2C(=O)O)cc1[N+](=O)[O-]` belongs “inactive”. On the same count and under the same terms, the entry for `O=C(CCN1C(=O)c2ccccc2C1=O)Oc1ccc2ccccc2c1` is “inactive”; for `CN1/C(=C\C=C\C2=[N+](C)c3ccc4ccccc4c3C2(C)C)C(C)(C)c2ccccc21` it is “inactive”. On to `Cc1cc(-c2c(C)[nH]n(-c3ccc(Cl)cc3)c2=O)n[nH]1`, for which the IC50 was > 10 µM (inactive). As to `CCOc1ccc(N2C(=O)CS/C2=C(\C(Cl)=C(Cl)Cl)[N+](=O)[O-])cc1`, the inhibition entry was “inactive”. On the same count and under the same terms, to `CCOC(=O)CC(=O)CSc1nc2c(C)c(C)ccc2cc1C` belongs “inactive”; to `c1ccc(-c2nccc(-c3ccc(-n4cnc5ccccc54)cc3)n2)nc1`, “inactive”; to `O=C(CSc1nc2ccc(S(=O)(=O)N3CCOCC3)cc2[nH]1)N1CCOCC1`, “inactive”. In the case of `CCOc1ccccc1NC(=O)CN(c1ccc(C)cc1)S(=O)(=O)c1c(C)noc1C`, the inhibition result is “inactive”. Still for that read-out and setting: the entry for `CCOc1ccc(N=C2NC(=O)S/C2=C\c2ccc(Cl)cc2)cc1` is “inactive”. On the same count and under the same terms, to `Cc1ccc2oc3nc(C)c(C(=O)Nc4cccc(C(F)(F)F)c4)cc3c(=O)c2c1` belongs “inactive”. Turning to `O=[N+]([O-])c1cc(/C=N\Nc2nccs2)ccc1O`, the IC50 was 4.06 µM. `CCOC(=O)c1ccc(NC(=O)CC2NCCNC2=O)cc1` (stereo not given): the inhibition entry was “inactive”. Same read-out and setting: to `N#CC(c1cccc(C(F)(F)F)c1)(c1ncc(C(F)(F)F)cc1Cl)N1CCOCC1` (stereo not given) belongs “inactive”; to `O=C(Nc1nnc(COc2ccc(Cl)cc2)s1)c1ccc([N+](=O)[O-])cc1`, “inactive”. Still for that read-out and setting: the entry for `Cc1ccc(CNC(=O)c2ccccc2N)cc1` is “inactive”.
